Non-standard residues stand in square brackets, D forms with d. Residues, ends and D or L forms follow the SMILES beside them. NMeR = CN[C@@H](CCCNC(=N)N)C(=O)O; NMeF = CN[C@@H](Cc1ccccc1)C(=O)O; NMeL = CN[C@@H](CC(C)C)C(=O)O
Assays:
[1] = Solubility in aqueous solutions; assay type: physicochemical; conditions: over a wide range of pH values, completely soluble
From the text: The two positively charged arginine side chains assist the peptide to penetrate cell membranes and the blood-brain barrier by making electrostatic interactions with the negatively charged phosphate head groups of their constituent phospholipid molecules, resulting in the formation of inverted micelles which carry the peptide molecules across these membranes.

[2] = target: T1, synthetic peptide fragment corresponding to residues 11 to 25 of the Alzheimer's Aβ peptide (Homo sapiens, UniProt P05067); test: Thioflavin T fluorescence assay of Aβ peptide fragment aggregation into amyloid fibrils; assay type: biochemical
T1 construct: synthetic peptide fragment corresponding to residues 11 to 25 of the Alzheimer's Aβ peptide; host or cells: chemical synthesis (synthetic peptide)
Description: The capacity of Peptide X (SEQ ID NO:2) to inhibit the aggregation of a synthetic peptide fragment corresponding to residues 11 to 25 of the Alzheimer's Aβ peptide into amyloid fibrils was determined quantitatively using a standard assay based on the amyloid-dependent fluorescence of thioflavin T at 482 nm (Levine, 1993).
Peptide X (SEQ ID NO:2) was dissolved in water to a concentration of 10 mM (about 10 mg/ml). Alzheimer's Aβ peptide fragment, at a concentration of 50 μM (about 0.1 mg/ml) in 50 mM sodium acetate buffer (pH 5.0), was incubated at 25° C. in the absence or presence of Peptide X at concentrations ranging from 100 μM to 1 mM; the aggregation of the Aβ peptide fragment into insoluble β-fibres in the solutions was determined quantitatively after 20 minutes by measuring the fluorescence of […] added thioflavin T at 482 nm using an excitation wavelength of 440 nm.

[3] = tested on: Aβ peptide; test: Inhibition of Aβ peptide aggregation into β-sheets (method not described); assay type: biochemical

| solubility [1] | solubility ([1]; approximate equivalent of 10 mM) | inhibition at 100 µM ([2]; 100 μM Peptide X, 50 μM Aβ fragment, 50 mM sodium acetate pH 5.0, 25° C., 20 minutes, thioflavin T at 482 nm) | reduction in Alzheimer's Aβ peptide aggregation (FIG. 6) ([2]; Peptide X concentration of 100 μM) | Molecule | disaggregation of preformed amyloid fibrils ([2]; Peptide X added to the Aβ peptide fragment after incubation) | inhibiting Aβ peptide aggregation into β-sheets [3] |
| --- | --- | --- | --- | --- | --- | --- |
| ≥ 10 mM | ≥ 10000 µg/mL | > 70% | 70% | CC(=O)N[C@@H](CCCNC(=N)N)C(=O)N(C)[C@@H](CCCNC(=N)N)C(=O)N[C@@H](CC(C)C)C(=O)N(C)[C@@H](CC(C)C)C(=O)N[C@@H](Cc1ccccc1)C(=O)N(C)[C@@H](Cc1ccccc1)C(N)=O [Peptide X, Nα-acetyl-(L-arginine)-(Nα-methyl-L-arginine)-(L-leucine)-(Nα-methyl-L-leucine)-(L-phenylalanine)-(Nα-methyl-L-phenylalanine)-NH2] (Ac-R[NMeR]L[NMeL]F[NMeF]-NH2) | able to disaggregate preformed amyloid fibrils | – |
| – | – | – | – | (L-arginine)-(L-lysine)-(L-valine)-(Nα-methyl-L-phenylalanine)-(L-tyrosine)-(L-threonine)-(L-tryptophan) [Arg-Lys-Val-mePhe-Tyr-Thr-Trp] | – | effective |

From patent US7125838B1, “Peptides containing N-substituted L-amino acids for preventing β-strand association” (Senexis Limited, priority 1999, dated 2006)
